Source: patent publication US20110257211A1, “Small-Molecule Choline Kinase Inhibitors as Anti-Cancer Therapeutics” (ADVANCED CANCER THERAPEUTICS, LLC, priority 2010, published 2011)
pIC50: −log10 of the molar value.

What was measured:
K562 = assay: Inhibition of cancer cell proliferation, Alamar Blue assay (K562); format: cell-based; conditions: Homo sapiens, Table 2A, Alamar Blue, 72 hours exposure, read-out: IC50s K562
Method: (§1) The ability of the compounds described herein to kill or inhibit the proliferation of cancer cells was measured using the Alamar Blue assay using a 72 hours exposure. Results for different cancer cell lines are shown in, the Table 2 below (hematopoietic cell lines U937 and K562; MDA-MB-231 a breast cancer cell line; and NCI-H82 and Calu-6, two lung cancer cell lines): […]

MDA-MB-231 = assay: Inhibition of cancer cell proliferation, Alamar Blue assay (MDA-MB-231); format: cell-based; conditions: Homo sapiens, Table 2A, Alamar Blue, 72 hours exposure, read-out: IC50s MDA-MB231
Method: as §1

U937 = assay: Inhibition of cancer cell proliferation, Alamar Blue assay (U937); format: cell-based; conditions: Homo sapiens, U-937; Table 2A; Alamar Blue, 72 hours exposure; read-out: IC50s U937
Method: as §1

NCI-H82 = assay: Inhibition of cancer cell proliferation, Alamar Blue assay (NCI-H82); format: cell-based; conditions: Homo sapiens, Table 2A, Alamar Blue, 72 hours exposure, read-out: IC50s NCI-H82
Method: as §1

Calu-6 = assay: Inhibition of cancer cell proliferation, Alamar Blue assay (Calu-6); format: cell-based; conditions: Homo sapiens, Table 2A, Alamar Blue, 72 hours exposure, read-out: IC50s Calu-6
Method: as §1

[1] = Microsomal stability in human liver microsomes; format: in vitro ADME
Description: Microsomal stability in vitro in different biologic media and species is ascertained when screening compounds to evaluate the rate at which a compound undergoes metabolism.

[2] = Pharmacokinetics in Balbc mice; format: in vivo; conditions: IV, Balbc male mice, 5 mg/kg
Method: The pharmacokinetic parameters for several compounds listed above were determined in mice following IV (intravenous) or IP (intraperitoneal) administration. Briefly, six Balbc male mice 7 to 8 weeks old were used for each study. A dose of 5 mg/kg or 10 mg/kg was administered using a 5% DMSO/90% Captisol (20% in water) solution for ACT-CK-050 or FFF for ACT-CK-154. Blood samples were collected at different intervals. Plasma samples were extracted and analyzed using an LC-MS/MS method. Results are represented in FIGS. 1 and 2.

Work on `CCOc1ccc(-c2nnc(SCC(=O)Nc3cccc(C)c3)[nH]2)cc1` [ACT-CK-156, 2-[5-(4-Ethoxy-phenyl)-4H-[1,2,4]triazol-3-ylsulfanyl]-N-m-tolyl-acetamide] yielded a pIC50 (K562) of 5.49, a pIC50 (MDA-MB-231) of 5.15 and a pIC50 (U937) of 5.96. It also gave a pIC50 (NCI-H82) of 5.77 and a pIC50 (Calu-6) of 5.77.
In the case of `Cc1cc(C)cc(NC(=O)CSc2nnc(-c3cc4ccccc4[nH]3)[nH]2)c1` [ACT-CK-124, N-(3,5-Dimethyl-phenyl)-2-[5-(1H-indol-2-yl)-4H-[1,2,4]triazol-3-ylsulfanyl]-acetamide], the pIC50 (K562) was 4.64 and the pIC50 (MDA-MB-231) was 4.80.
For `COc1ccc(-c2nnc(SCC(=O)Nc3c(F)cccc3F)[nH]2)cc1` [ACT-CK-061, N-(2,6-Difluoro-phenyl)-2-[5-(4-methoxy-phenyl)-4H-[1,2,4]triazol-3-ylsulfanyl]-acetamide], the pIC50 (K562) was 4.55 and the pIC50 (MDA-MB-231) was < 4.00.
`CCOc1ccc(-c2nnc(SCC(=O)Nc3cc(C)cc(C)c3)[nH]2)cc1F` [ACT-CK-154, N-(3,5-Dimethyl-phenyl)-2-[5-(4-ethoxy-3-fluoro-phenyl)-4H-[1,2,4]triazol-3-ylsulfanyl]acetamide] showed a pIC50 (K562) of 6.10, a pIC50 (MDA-MB-231) of 5.59 and a pIC50 (U937) of 7.70. For the same molecule, the pIC50 (NCI-H82) was 6.80, the pIC50 (Calu-6) was 7.52 and the “% Metabolized (mean)” value [1] was 99%. For the same molecule, the Cmax [2] was 3639 ng/mL, the T1/2b [2] was 9 min and the Vd [2] was 1.66 L/kg.
For `CCOc1ccc(-c2nnc(SCC(=O)Nc3ccc(F)cc3F)[nH]2)cc1` [ACT-CK-064, N-(2,4-Difluoro-phenyl)-2-[5-(4-ethoxy-phenyl)-4H-[1,2,4]triazol-3-ylsulfanyl]-acetamide], the pIC50 (K562) was 4.40 and the pIC50 (MDA-MB-231) was 4.15.
In the case of `CCOc1cccc(-c2nnc(SCC(=O)Nc3cc(C)cc(C)c3)[nH]2)c1` [ACT-CK-141, N-(3,5-Dimethyl-phenyl)-2-[5-(3-ethoxy-phenyl)-4H-[1,2,4]triazol-3-ylsulfanyl]-acetamide], the pIC50 (K562) was 4.41, the pIC50 (MDA-MB-231) was 4.06 and the pIC50 (U937) was 4.31. The pIC50 (Calu-6) was 4.37.
With `Cc1cc(C)cc(NC(=O)CSc2nnc(-c3ccc(O)cc3)[nH]2)c1` [ACT-CK-146, N-(3,5-Dimethyl-phenyl)-2-[5-(4-hydroxy-phenyl)-4H-[1,2,4]triazol-3-ylsulfanyl]-acetamide] the pIC50 (K562) was 4.50, the pIC50 (MDA-MB-231) was 4.04 and the pIC50 (U937) was 4.47. The pIC50 (Calu-6) was 4.27 and the “% Metabolized (mean)” value [1] was 85%.
`CCOc1ccc(-c2nnc(SCC(=O)Nc3ccc(OC)cc3C)[nH]2)cc1` [ACT-CK-087, 2-[5-(4-Ethoxy-phenyl)-4H-[1,2,4]triazol-3-ylsulfanyl]-N-(4-methoxy-2-methyl-phenyl)-acetamide] gave a pIC50 (K562) of 5.05 and a pIC50 (MDA-MB-231) of 4.97.
Molecule `CCOc1ccc(-c2nnc(SCC(=O)Nc3cc(C)cc(C)n3)[nH]2)cc1` [ACT-CK-147, N-(4,6-Dimethyl-pyridin-2-yl)-2-[5-(4-ethoxy-phenyl)-4H-[1,2,4]triazol-3-ylsulfanyl]-acetamide] has a pIC50 (K562) of 6.01, a pIC50 (MDA-MB-231) of 4.28 and a pIC50 (U937) of 6.20. The pIC50 (Calu-6) was 6.13 and the “% Metabolized (mean)” value [1] was 91%.
For `CCCOc1ccc(-c2nnc(SCC(=O)Nc3cc(C)ccc3F)[nH]2)cc1` [ACT-CK-120, N-(2-Fluoro-5-methyl-phenyl)-2-[5-(4-propoxy-phenyl)-4H-[1,2,4]triazol-3-ylsulfanyl]-acetamide], the pIC50 (K562) was 4.37 and the pIC50 (MDA-MB-231) was 5.05.
For `CCOc1ccc(-c2nnc(SCC(=O)Nc3cc(C)ccc3F)[nH]2)cc1` [ACT-CK-071, 2-[5-(4-Ethoxy-phenyl)-4H-[1,2,4]triazol-3-ylsulfanyl]-N-(2-fluoro-5-methyl-phenyl)-acetamide], the pIC50 (K562) was 6.09 and the pIC50 (MDA-MB-231) was 4.40.
`CCOc1ccc(-c2nnc(SCC(=O)Nc3cc(F)ccc3C)[nH]2)cc1` [ACT-CK-067, 2-[5-(4-Ethoxy-phenyl)-4H-[1,2,4]triazol-3-ylsulfanyl]-N-(5-fluoro-2-methyl-phenyl)-acetamide] showed a pIC50 (K562) of 5.80 and a pIC50 (MDA-MB-231) of 4.72.
`COc1cccc(-c2nnc(SCC(=O)Nc3cc(C)cc(C)c3)[nH]2)c1` [ACT-CK-140, N-(3,5-Dimethyl-phenyl)-2-[5-(3-methoxy-phenyl)-4H-[1,2,4]triazol-3-ylsulfanyl]-acetamide] gave a pIC50 (K562) of 4.39, a pIC50 (MDA-MB-231) of 4.10 and a pIC50 (U937) of 4.69. The pIC50 (Calu-6) was 4.38.
For `CCCOc1ccc(-c2nnc(SCC(=O)Nc3cc(OC)cc(OC)c3)[nH]2)cc1` [ACT-CK-119, N-(3,5-Dimethoxy-phenyl)-2-[5-(4-propoxy-phenyl)-4H-[1,2,4]triazol-3-ylsulfanyl]-acetamide], the pIC50 (K562) was 4.55 and the pIC50 (MDA-MB-231) was 4.96.
With `CCOc1ccc(-c2nnc(SCC(=O)Nc3cc(C)cc(C)c3)[nH]2)cn1` [ACT-CK-143, N-(3,5-Dimethyl-phenyl)-2-[5-(6-ethoxy-pyridin-3-yl)-4H-[1,2,4]triazol-3-ylsulfanyl]-acetamide] the “% Metabolized (mean)” value [1] was 34%.
For `CCOc1ccc(-c2nnc(SCC(=O)Nc3cc(C)nc(C)c3)[nH]2)cc1` [ACT-CK-151, N-(2,6-Dimethyl-pyridin-4-yl)-2-[5-(4-ethoxy-phenyl)-4H-[1,2,4]triazol-3-ylsulfanyl]-acetamide], the “% Metabolized (mean)” value [1] was 91%.
Work on `CCOc1ccc(-c2nnc(SCC(=O)Nc3ccc(C)cc3C)[nH]2)cc1` [ACT-CK-097, N-(2,4-Dimethyl-phenyl)-2-[5-(4-ethoxy-phenyl)-4H-[1,2,4]triazol-3-ylsulfanyl]-acetamide] yielded a pIC50 (K562) of 5.42 and a pIC50 (MDA-MB-231) of 4.92.
With `CCOc1ccc(-c2nnc(SCC(=O)Nc3cc(C)cc(C)c3)[nH]2)cc1C` [ACT-CK-142, N-(3,5-Dimethyl-phenyl)-2-[5-(4-ethoxy-3-methyl-phenyl)-4H-[1,2,4]triazol-3-ylsulfanyl]-acetamide] the pIC50 (K562) was 6.92, the pIC50 (MDA-MB-231) was 4.30 and the pIC50 (U937) was 7.46. The pIC50 (Calu-6) was 7.05 and the “% Metabolized (mean)” value [1] was 99%.
For `CCOc1ccc(-c2nnc(SCC(=O)Nc3cc(C(F)(F)F)cc(C(F)(F)F)c3)[nH]2)cc1` [ACT-CK-152, N-(3,5-Bis-trifluoromethyl-phenyl)-2-[5-(4-ethoxy-phenyl)-4H-[1,2,4]triazol-3-ylsulfanyl]-acetamide], the “% Metabolized (mean)” value [1] was 47%.
For `COc1ccc(-c2nnc(SCC(=O)Nc3cccc(C)c3C)[nH]2)cc1` [ACT-CK-070, N-(2,3-Dimethyl-phenyl)-2-[5-(4-methoxy-phenyl)-4H-[1,2,4]triazol-3-ylsulfanyl]-acetamide], the pIC50 (K562) was 4.49 and the pIC50 (MDA-MB-231) was 4.17.
With `COc1ccc(-c2nnc(SCC(=O)Nc3ccc(C)cc3C)[nH]2)cc1` [ACT-CK-096] the pIC50 (K562) was 4.47 and the pIC50 (MDA-MB-231) was 3.83.
For `COc1ccc(-c2nnc(SCC(=O)Nc3cc(F)ccc3C)[nH]2)cc1` [ACT-CK-066, N-(5-Fluoro-2-methyl-phenyl)-2-[5-(4-methoxy-phenyl)-4H-[1,2,4]triazol-3-ylsulfanyl]-acetamide], the pIC50 (K562) was 4.94 and the pIC50 (MDA-MB-231) was 4.12.
Molecule `CCOc1ccc(-c2nnc(SCC(=O)Nc3cc(OC)ccc3OC)[nH]2)cc1` [ACT-CK-093, N-(2,5-Dimethoxy-phenyl)-2-[5-(4-ethoxy-phenyl)-4H-[1,2,4]triazol-3-ylsulfanyl]-acetamide] has a pIC50 (K562) of 5.21 and a pIC50 (MDA-MB-231) of 4.80.
For `CCOc1ccc(-c2nnc(SCC(=O)Nc3nc(C)cc(C)n3)[nH]2)cc1` [ACT-CK-148, N-(4,6-Dimethyl-pyrimidin-2-yl)-2-[5-(4-ethoxy-phenyl)-4H-[1,2,4]triazol-3-ylsulfanyl]-acetamide], the pIC50 (K562) was 6.14, the pIC50 (MDA-MB-231) was 4.54 and the pIC50 (U937) was 6.30. For the same molecule, the pIC50 (NCI-H82) was 5.09, the pIC50 (Calu-6) was 6.33 and the “% Metabolized (mean)” value [1] was 54%.
`COc1ccc(-c2nnc(SCC(=O)Nc3cc(C)ccc3F)[nH]2)cc1` [ACT-CK-085, N-(2-Fluoro-5-methyl-phenyl)-2-[5-(4-methoxy-phenyl)-4H-[1,2,4]triazol-3-ylsulfanyl]-acetamide] gave a pIC50 (K562) of 5.36 and a pIC50 (MDA-MB-231) of 4.79.
For `Cc1cc(C)cc(NC(=O)CSc2nnc(-c3ccc(OCCO)cc3)[nH]2)c1` [ACT-CK-155, N-(3,5-Dimethyl-phenyl)-2-{5-[4-(2-hydroxy-ethoxy)-phenyl]-4H-[1,2,4]triazol-3-ylsulfanyl}-acetamide], the “% Metabolized (mean)” value [1] was 69%.
For `CCOc1ccc(-c2nnc(SCC(=O)Nc3cccc(C)c3C)[nH]2)cc1` [ACT-CK-076, N-(2,3-Dimethyl-phenyl)-2-[5-(4-ethoxy-phenyl)-4H-[1,2,4]triazol-3-ylsulfanyl]-acetamide], the pIC50 (K562) was 4.83 and the pIC50 (MDA-MB-231) was 4.67.
Work on `CCCOc1ccc(-c2nnc(SCC(=O)Nc3cc(C)cc(C)c3)[nH]2)cc1` [ACT-CK-118, N-(3,5-Dimethyl-phenyl)-2-[5-(4-propoxy-phenyl)-4H-[1,2,4]triazol-3-ylsulfanyl]-acetamide] yielded a pIC50 (K562) of 5.85 and a pIC50 (MDA-MB-231) of 5.25.
